Molecules are shown by their SMILES.

The target of one experiment is T1, recombinant human glucokinase (beta cell isoform) (Homo sapiens, UniProt P35557).
T1 construct: Full-length glucokinase (beta cell isoform) was His-tagged at the N-terminus; His tag (N); made in house; host or cells: E. coli BL21(DE3), vector pBCGK
T1 sequence (P35557 1-465): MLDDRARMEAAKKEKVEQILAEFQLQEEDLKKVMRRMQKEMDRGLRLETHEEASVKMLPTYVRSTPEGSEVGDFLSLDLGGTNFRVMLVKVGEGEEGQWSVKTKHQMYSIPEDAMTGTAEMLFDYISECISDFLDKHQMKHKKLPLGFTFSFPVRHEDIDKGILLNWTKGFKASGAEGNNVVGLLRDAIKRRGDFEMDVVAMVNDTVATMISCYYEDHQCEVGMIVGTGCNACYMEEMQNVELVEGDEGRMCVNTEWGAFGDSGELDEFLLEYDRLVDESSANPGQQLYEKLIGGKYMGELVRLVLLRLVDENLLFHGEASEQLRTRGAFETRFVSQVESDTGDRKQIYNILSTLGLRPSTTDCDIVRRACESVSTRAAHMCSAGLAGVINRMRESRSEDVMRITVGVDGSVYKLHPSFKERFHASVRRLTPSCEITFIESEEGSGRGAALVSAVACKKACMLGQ
The experiment can be described thus: Assay 1: Evaluating Activator Potency and Maximum Activation at 5 mM Glucose. The experiment is classed as biochemical. Particulars: Assay 1; 5 mM glucose; NADH depletion at 340 nm, PK/LDH coupled; read-out: Glucokinase EC50. How it is done:
Representative compounds of this invention were evaluated in biochemical assays (Assay 1 or Assay 2) to characterize their glucokinase activation properties.
The recombinant human glucokinase protein utilized in both assays was prepared and purified as described below.
BL21(DE3) cells (Invitrogen Corporation, Carlsbad, Calif.) containing pBCGK (C or N H is) vector were grown at 37° C. (in 2XYT) until the OD600 was between 0.6-1.0. Expression was induced by addition of isopropylthiogalactoside to a final concentration of 0.1-0.2 mM to the cells which were then incubated overnight at 23° C. The next day, cells were harvested via centrifugation at 5000 rpm for 15 minutes at 4° C. The cell pellet was stored at −80° C. for future purification.
Beta Cell Glucokinase His-Taq Purification Conditions: A Ni-NTA (Quigan, Germantown, Md.) column (15-50 mL) was used for separation. Two buffers were prepared, 1) a lysis/nickel equilibration and wash buffer and 2) a nickel elution buffer. The lysis/equilibration/wash buffer was prepared as such: 25 mM HEPES buffer at pH 7.5, 250 mM NaCl, 20 mM imidazole, and 14 mM β-mercaptoethanol as final concentrations. The elution buffer was prepared as such: 25 mM HEPES at pH 7.5, 250 mM NaCl, 400 mM imidazole, and 14 mM β-mercaptoethanol as final concentrations. The buffers were each filtered with a 0.22 μm filter prior to use. The cell pellet (1 L culture) was resuspended in 300 mL of the lysis/equilibration buffer. The cells were then lysed (3 times) with a Microfluidics Model 110Y microfluidizer (Microfluidics Corporation, Newton, Mass.). The slurry was centrifuged with a Beckman Coulter Model LE-80K ultracentrifuge (Beckman Coulter, Fullerton, Calif.) at 40,000 rpm for 45 minutes at 4° C. The supernatant was transferred to a chilled flask. A volume of 20 μl was saved for gel analysis. A Pharmacia AKTA (GMI, Inc., Ramsey, Minn.) purification system was used for separation. The prime lines were purged with lysis/equilibration buffer. The Ni-NTA column was equilibrated with 200 mL of the lysis/equilibration buffer at a flow rate of 5 mL/minute. The supernantant was loaded over the column at 4 mL/minute and the flow-through was collected in a flask. The unbound proteins were washed with lysis/equilibration buffer at a flow rate of 5 mL/minute until the ultraviolet reaches baseline. The protein was then eluted from the column with the imidazole elution buffer via imidazole gradient 20 mM to 400 mM over 320 mL. The column was then stripped of any additional protein with 80 mL of the elution buffer. The elution fractions were each 8 mL, for a total yield of 50 samples. Fractions were analyzed by sodium dodecyl sulfate polyacrylamide (SDS-PAGE) and the fractions containing protein of interest were pooled and concentrated to 10 mL using ultrafiltration cell with a 10,000 molecular weight cut-off (MWCO) Millipore membrane (Sigma-Aldrich, St. Louis, Mo.) under nitrogen gas (60 psi). Protein was further purified by size exclusion chromatography (SEC) using a […] (320 mL) (Amersham Pharmacia, Uppsala, Sweden). SEC was equilibrated with 450 mL sizing buffer containing 25 mM HEPES pH 7.0, 50 mM NaCl, and 5 mM dithiothreitol. Concentrated protein was then loaded over SEC and elution with 400 mL sizing buffer was performed overnight at 0.5 mL/minute. The elution fractions were 5 mL each. The fractions were analyzed by SDS-PAGE and protein containing fractions were pooled. Concentration was measured using Bradford Assay/BSA Standard. Purified protein was stored in small aliquots at −80° C.
Assay 1: Evaluating Activator Potency and Maximum Activation at 5 mM Glucose
Full-length glucokinase (beta cell isoform) was His-tagged at the N-terminus and purified by a Ni column followed by size exclusion chromatography as described above. Glucose was obtained from Calbiochem (San Diego, Calif.) and other reagents were purchased from Sigma-Aldrich (St. Louis, Mo.).
`Cc1ccc(NC(=O)c2cc(Oc3ccc(S(C)(=O)=O)cc3)c3cn(C)nc3c2)nc1` [Example 1M, 2-methyl-N-(5-methylpyridin-2-yl)-4-[4-(methylsulfonyl)phenoxy]-2H-indazole-6-carboxamide]: the EC50 turned out to be 2.66 µM.

As for `Cn1ccc(NC(=O)c2cc(Oc3ccc(S(C)(=O)=O)cc3)c3cn(C)nc3c2)n1` [Example 1N, 2-methyl-N-(1-methyl-1H-pyrazol-3-yl)-4-[4-(methylsulfonyl)phenoxy]-2H-indazole-6-carboxamide], the concentration for a half-maximal effect (EC50) turned out to be 8.54 µM.

As to `CCn1cc2c(Oc3cnc(C(=O)N(C)C)cn3)cc(C(=O)Nc3ccc(C)cn3)cc2n1` [Example 1O, 4-{[5-(dimethylcarbamoyl)pyrazin-2-yl]oxy}-2-ethyl-N-(5-methylpyridin-2-yl)-2H-indazole-6-carboxamide], the EC50 was 0.776 µM.

Regarding `CCn1cc2c(Oc3cnc(C(=O)N(C)C)cn3)cc(C(=O)Nc3cnc(C)cn3)cc2n1` [Example 1P, 4-{[5-(dimethylcarbamoyl)pyrazin-2-yl]oxy}-2-ethyl-N-(5-methylpyrazin-2-yl)-2H-indazole-6-carboxamide], the concentration for a half-maximal effect (EC50) is 2.73 µM.

Turning to `CCn1cc2c(Oc3ccc(S(C)(=O)=O)cc3)cc(C(=O)Nc3ccccn3)cc2n1` [Example 1Q, 2-ethyl-4-[4-(methylsulfonyl)phenoxy]-N-pyridin-2-yl-2H-indazole-6-carboxamide], the EC50 stood at 2.42 µM.

Take `CCn1cc2c(Oc3ccc(S(C)(=O)=O)cc3)cc(C(=O)Nc3ccc(C)cn3)cc2n1` [Example 1R, 2-ethyl-N-(5-methylpyridin-2-yl)-4-[4-(methylsulfonyl)phenoxy]-2H-indazole-6-carboxamide]: the EC50 is 1.41 µM.

For `CCS(=O)(=O)c1ccc(Oc2cc(C(=O)Nc3ccccn3)cc3nn(C)cc23)cc1` [Example 1S, 4-[4-(ethylsulfonyl)phenoxy]-2-methyl-N-pyridin-2-yl-2H-indazole-6-carboxamide], the EC50 worked out at 1.34 µM.

On to `CCS(=O)(=O)c1ccc(Oc2cc(C(=O)Nc3cnc(C)cn3)cc3nn(C)cc23)cc1` [Example 1T, 4-[4-(ethylsulfonyl)phenoxy]-2-methyl-N-(5-methylpyrazin-2-yl)-2H-indazole-6-carboxamide], for which the EC50 is 1.95 µM.

With `Cc1cnc(NC(=O)c2cc(Oc3ccc(S(=O)(=O)C4CC4)cc3)c3cn(C)nc3c2)cn1` [Example 1U, 4-[4-(cyclopropylsulfonyl)phenoxy]-2-methyl-N-(5-methylpyrazin-2-yl)-2H-indazole-6-carboxamide], the concentration giving a half-maximal response (EC50) stood at 1.89 µM.

As to `Cn1cc2c(Oc3ccc(S(=O)(=O)C4CC4)cc3)cc(C(=O)Nc3ccccn3)cc2n1` [Example 1V, 4-[4-(cyclopropylsulfonyl)phenoxy]-2-methyl-N-pyridin-2-yl-2H-indazole-6-carboxamide], the EC50 stood at 1.5 µM.

Turning to `CCn1cc2c(Oc3ccc(S(=O)(=O)C4CC4)cc3)cc(C(=O)Nc3cnc(C)cn3)cc2n1` [Example 1W, 4-[4-(cyclopropylsulfonyl)phenoxy]-2-ethyl-N-(5-methylpyrazin-2-yl)-2H-indazole-6-carboxamide], the EC50 worked out at 1.48 µM.

With `CCn1cc2c(Oc3ccc(S(=O)(=O)C4CC4)cc3)cc(C(=O)Nc3ccccn3)cc2n1` [Example 1X, 4-[4-(cyclopropylsulfonyl)phenoxy]-2-ethyl-N-pyridin-2-yl-2H-indazole-6-carboxamide], the half-maximal effective concentration (EC50) was determined as 0.863 µM.

For the compound `Cc1ccc(NC(=O)c2cc(Oc3cnc(C(=O)N(C)C)nc3)c3cn(C)nc3c2)nc1` [Example 1Z, 4-{[2-(dimethylcarbamoyl)pyrimidin-5-yl]oxy}-2-methyl-N-(5-methylpyridin-2-yl)-2H-indazole-6-carboxamide], the half-maximal effective concentration (EC50) was 1.08 µM.

Still in this experiment, the particulars now being: Assay 1; 5 mM glucose; read-out: Glucokinase EC50.
For the compound `Cc1cnc(NC(=O)c2cc(Oc3cnc(C(=O)N(C)C)nc3)c3cn(C)nc3c2)cn1` [Example 1Y, 4-{[2-(dimethylcarbamoyl)pyrimidin-5-yl]oxy}-2-methyl-N-(5-methylpyrazin-2-yl)-2H-indazole-6-carboxamide], the 50% effective concentration (EC50) turned out to be 3.34 µM.

Values taken from US20110319379A1, “Substituted Indazole Amides And Their Use As Glucokinase Activators” (priority 2009, published 2011).
